In patent US11311522B1 (Cavion, Inc., priority 2018, dated 2022):

What was measured:
[1] = Respiratory function, whole body plethysmography; conditions: female, rat; for Cmax: plasma, po
respiratory function = assay: Respiratory function, whole body plethysmography; conditions: female, rat, in vivo
[2] = PN001/Part II: safety and tolerability; type: in vivo, human
Description: No serious adverse events were reported in the subjects who received CX-8998. One placebo-treated subject experienced a serious adverse event (peritonsillar abscess). The subject was admitted to the hospital for treatment with oral and intravenous antibiotics and was discontinued from the study because of this event. […] Each treatment period was separated from the previous one by an approximate 2-week washout, and all treatments were administered in the morning after an overnight fast. Electroencephalograms were recorded before and at selected time points for up to 24 hours after dosing in each treatment period. Cognitive and subjective assessments, including the Karolinska Sleepiness Scale and Bond-Lader visual analog scale, were also performed. 5.3.1.2.2 Pharmacodynamic Data Alpha rhythm is seen posterior brain regions in healthy adults during quiet wakefulness. It originates in the thalamus and is driven by Cav3 channel activity (Schreckenberger, 2004). Agitated, awake individuals may not display an alpha rhythm. […] Reductions in alpha power during the eyes closed position, were generally observed throughout the 24-hour postdose evaluation period for the 18 mg dose and were generally consistent across electrode sites.

[3] = target: human peroxisome proliferator-activated receptor gamma (PPARγ) (Homo sapiens, UniProt P37231); assay: PPARγ binding
human peroxisome proliferator-activated receptor gamma (PPARγ), sequence (P37231 whole entry): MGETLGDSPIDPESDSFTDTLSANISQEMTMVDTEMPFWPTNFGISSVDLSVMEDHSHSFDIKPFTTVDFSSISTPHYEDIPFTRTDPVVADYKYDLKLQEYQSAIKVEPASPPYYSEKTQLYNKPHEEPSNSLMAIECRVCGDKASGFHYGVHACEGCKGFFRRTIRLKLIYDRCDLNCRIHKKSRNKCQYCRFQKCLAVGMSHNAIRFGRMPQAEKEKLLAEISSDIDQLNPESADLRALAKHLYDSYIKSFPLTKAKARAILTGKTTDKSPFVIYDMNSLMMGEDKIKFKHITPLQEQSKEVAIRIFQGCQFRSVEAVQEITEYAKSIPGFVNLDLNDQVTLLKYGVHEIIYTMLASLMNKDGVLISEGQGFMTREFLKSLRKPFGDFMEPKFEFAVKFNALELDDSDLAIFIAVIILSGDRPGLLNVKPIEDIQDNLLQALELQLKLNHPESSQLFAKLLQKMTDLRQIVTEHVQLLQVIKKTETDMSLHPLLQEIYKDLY

In the case of `CC(C)c1ccc(CC(=O)N[C@H](C)c2ccc(OCC(F)(F)F)cn2)cc1` [CX-8998], the NOAEL ([1]; in vivo) is reported as 30 mg/kg, the Cmax ([1]; 300 mg/kg) is reported as ~28 µM and the Cmax ([1]; 2000 mg/kg) is reported as ~34 µM. The “NOEL for respiratory function” value (respiratory function) was < 30 mg/kg, the “At least 1 adverse event” value ([2]; 5 mg) was 8 (66.7) n (%) and the Dizziness ([2]; 5 mg) was 1 (8.3) n (%). The Drowsiness ([2]; 5 mg) was 3 (25.0) n (%), the Euphoric mood ([2]; 5 mg) was 1 (8.3) n (%) and the Feeling of relaxation ([2]; 5 mg) was 1 (8.3%) n (%). The Floating feeling ([2]; 5 mg) was 1 (8.) n (%), the “Gastrointestinal Disorders” value ([2]; 5 mg) was 2 (16.7) n (%) and the Headache ([2]; 5 mg) was 1 (8.3) n (%). For the same compound, the Intermittent headache ([2]; 5 mg) was 0 n (%), the Nausea ([2]; 5 mg) was 2 (16.7) n (%) and the “Nervous System Disorders” value ([2]; 5 mg) was 4 (33.3) n (%). For the same compound, the “Psychiatric Disorders” value ([2]; 5 mg) was 4 (33.3) n (%), the Sleep disturbance ([2]; 5 mg) was 1 (8.3) n (%) and the Vivid dreams ([2]; 5 mg) was 2 (16.7) n (%). For the same compound, the “At least 1 adverse event” value ([2]; 18 mg) was 11 (91.7) n (%), the Dizziness ([2]; 18 mg) was 3 (25.0) n (%) and the Drowsiness ([2]; 18 mg) was 3 (25.0) n (%). The Euphoric mood ([2]; 18 mg) was 3 (25.0) n (%), the Feeling of relaxation ([2]; 18 mg) was 3 (25.0) n (%) and the Floating feeling ([2]; 18 mg) was 1 (8.3) n (%). For the same compound, the “Gastrointestinal Disorders” value ([2]; 18 mg) was 1 (8.3) n (%), the Headache ([2]; 18 mg) was 3 (25.0) n (%) and the Intermittent headache ([2]; 18 mg) was 2 (16.7) n (%). The Nausea ([2]; 18 mg) was 1 (8.3) n (%), the “Nervous System Disorders” value ([2]; 18 mg) was 8 (66.7) n (%) and the “Psychiatric Disorders” value ([2]; 18 mg) was 6 (50.0) n (%). The Sleep disturbance ([2]; 18 mg) was 2 (16.7) n (%), the Vivid dreams ([2]; 18 mg) was 2 (16.7) n (%) and the Tolerability ([2]; single doses of 5 and 18 mg) was “generally well tolerated”.

With `C=C(C)c1ccc(CC(=O)N[C@H](C)c2ccc(OCC(F)(F)F)cn2)cc1` [M01] the inhibition at 10 µM [3] was 54%.
